Experiment [1] in a line: Inhibition of Leishmania donovani FPPS.
The nature of experiment [2]: Inhibition of Trypanosoma brucei FPPS.
The subject of experiment [3] is Trypanosoma brucei rhodesiense. Briefly: Growth inhibition of Trypanosoma brucei rhodesiense.

Each structure is given as a SMILES string.

With `O=P(O)(O)C(O)(CCc1cccnc1)P(=O)(O)O`, the IC50 is 5400 nM in experiment [1] and 33000 nM in experiment [2]. In experiment [3], this compound returned a 50% effective concentration (EC50) of 1700 nM.

Consider `Cc1cccnc1NC(P(=O)(O)O)P(=O)(O)O`, for which half-maximal inhibition in experiment [2] (IC50) required 230 nM.

Compound `O=P(O)(O)C(O)(Cc1cccnc1)P(=O)(O)O` [RISEDRONIC ACID] came in with a half-maximal inhibitory concentration (IC50) in experiment [2] of 300 nM. This IC50 and that of the compound before are within 1.5-fold of each other.

Usually IC50 stands for the concentration at which inhibition is half-maximal. A higher IC50 goes with lower potency. Usually EC50 stands for the concentration that produces a half-maximal response. A higher EC50 goes with a less potent agent.

These data come from ChEMBL document CHEMBL3425452, “Farnesyl diphosphate synthase inhibitors with unique ligand-binding geometries” (ACS Med Chem Lett, 2015).
